The text below walks through data of US10793568B2, “Hormone receptor modulators for treating metabolic conditions and disorders” (ARDELYX, INC., priority 2016, dated 2020).

Assay [1] deals with ligand binding domain of human FXR (Homo sapiens (Human), UniProt Q96RI1). As to the kind of experiment: FXR ligand binding assay (LanthaScreen TR-FRET, SRC2-2 peptide recruitment). Conditions: for pEC50: -log EC50, concentration required to produce 50% activation; for Emax: read-out: % Efficacy.
Assay [2] has as its target human Farnesoid X receptor ligand-binding domain/Gal4 DNA binding domain chimera (Homo sapiens (Human), UniProt Q96RI1). The assay can be described thus: Cell-based assay of FXR activation (FXR-UAS-bla HEK 293T beta-lactamase reporter). The settings on record: cellular FXR beta-lactamase reporter assay; for Emax: HEK-293T, extent of activation relative to GW4064, read-out: % Efficacy; for EC50: FXR-UAS-bla HEK 293T cells, 16 h, pEC50 = -log EC50. An outline of the steps:
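HEK 293T cells stably expressing a Gal4-fused human FXR LBD and a UAS-driven beta-lactamase reporter were incubated with serially diluted compounds for 16 h at 37 °C in phenol red-free DMEM with 2% charcoal-stripped FBS. CCF4 FRET read-out: excitation 409 nm, emission 447 nm. pEC50 comes from a 3-parameter logistic fit, and efficacy is given as % of GW4064.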
In general terms: A reporter such as luciferase makes a cellular process visible.

Where [3] appears, read: extent of activation relative to GW4064.

As a reminder, the pEC50 is −log10 of the EC50, conventionally taken in molar units. Low values mean a large EC50, high ones a small EC50. One may read the EC50 as the concentration needed to bring the measured effect to its halfway point.

Where two headings read alike, the source gives them in different places.

Chain of ligand binding domain of human FXR (Q96RI1 262-486): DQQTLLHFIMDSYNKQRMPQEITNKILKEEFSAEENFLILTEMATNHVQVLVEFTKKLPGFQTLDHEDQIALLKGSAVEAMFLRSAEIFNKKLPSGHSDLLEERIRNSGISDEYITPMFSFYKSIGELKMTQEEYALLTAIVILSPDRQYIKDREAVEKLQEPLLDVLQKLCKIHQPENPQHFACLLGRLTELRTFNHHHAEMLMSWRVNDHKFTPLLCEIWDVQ
Chain of human Farnesoid X receptor ligand-binding domain/Gal4 DNA binding domain chimera (Q96RI1 262-486, change not shown): as the sequence (Q96RI1 262-486) above
Chain of human Farnesoid X receptor ligand-binding domain/Gal4 DNA binding domain chimera (P04386 1-147 partner): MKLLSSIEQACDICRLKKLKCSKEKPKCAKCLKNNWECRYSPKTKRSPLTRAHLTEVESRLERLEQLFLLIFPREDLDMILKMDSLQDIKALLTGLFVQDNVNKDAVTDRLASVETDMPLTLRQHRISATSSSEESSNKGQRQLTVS

`O=C(O)c1cc(O[C@H]2CCOC2)c2nc(N3C[C@@H]4C[C@H]3C[C@H]4OCc3c(-c4c(F)cccc4Cl)noc3C3CC3)sc2c1` [Compound I-267, 2-((1S,4S,5R)-5-((3-(2-chloro-6-fluorophenyl)-5-cyclopropylisoxazol-4-yl)methoxy)-2-azabicyclo[2.2.1]heptan-2-yl)-4-(((S)-tetrahydrofuran-3-yl)oxy)benzo[d]thiazole-6-carboxylic acid] displayed a pEC50 in assay [1] of 8.6. Besides, the Emax in assay [1] (setting [3]) was 146%. Besides, in assay [2], the Emax was found to be 102% and the response was half-maximal at 1 nM (EC50).

With `CC(C)(C)c1cc(C(=O)O)cc2sc(N3C[C@@H]4C[C@H]3C[C@H]4OCc3c(-c4c(Cl)cccc4Cl)noc3C3CC3)nc12` [Compound I-248, 4-tert-butyl-2-[(1S,4S,5R)-5-{[5-cyclopropyl-3-(2,6-dichlorophenyl)-1,2-oxazol-4-yl]methoxy}-2-azabicyclo[2.2.1]heptan-2-yl]-1,3-benzothiazole-6-carboxylic Acid], the pEC50 in assay [1] is recorded as 7.8. The Emax in assay [1] (setting [3]) was determined as 116%; in assay [2], 112%. Besides, in assay [2], the EC50 was 0.631 nM.

The molecule `CS(=O)(=O)CCNC(=O)c1ccc(N2C[C@@H]3C[C@H]2C[C@H]3OCc2c(-c3c(Cl)cccc3Cl)noc2C2CC2)cc1` [Compound I-169, 4-[(1S,4S,5R)-5-{[5-cyclopropyl-3-(2,6-dichlorophenyl)-1,2-oxazol-4-yl]methoxy}-2-azabicyclo[2.2.1]heptan-2-yl]-N-(2-methanesulfonylethyl)benzamide] displayed a pEC50 in assay [1] of 8.4. The Emax in assay [1] (setting [3]) worked out at 160%. Also, in assay [2], the Emax was 106% and it took 1.58 nM to reach a half-maximal effect (EC50).

On to `O=C(O)c1cc(C2CCC2)c2nc(N3C[C@@H]4C[C@H]3C[C@H]4OCc3c(C4CCC5(CC4)CC5)noc3C3CC3)sc2c1` [Compound I-282, 4-cyclobutyl-2-((1S,4S,5R)-5-((5-cyclopropyl-3-(spiro[2.5]octan-6-yl)isoxazol-4-yl)methoxy)-2-azabicyclo[2.2.1]heptan-2-yl)benzo[d]thiazole-6-carboxylic acid], for which, in assay [1], the pEC50 is given as 7.4. Moreover, the Emax in assay [1] (setting [3]) turned out to be 100%. In assay [2], the Emax was 117% and the EC50 was 25.1 nM.

As for `O=C(NS(=O)(=O)C1CC1)c1cnc(N2C[C@@H]3C[C@H]2C[C@H]3OCc2c(-c3c(Cl)cccc3Cl)noc2C2CC2)c(F)c1` [Compound I-207, 6-((1S,4S,5R)-5-((5-cyclopropyl-3-(2,6-dichlorophenyl)isoxazol-4-yl)methoxy)-2-azabicyclo[2.2.1]heptan-2-yl)-N-(cyclopropylsulfonyl)-5-fluoronicotinamide], the pEC50 in assay [1] is recorded as 8.6. Besides, the Emax in assay [1] (setting [3]) was found to be 152%. In addition, in assay [2], the Emax is 104% and it took 3.98 nM to reach a half-maximal effect (EC50).

In assay [1], `O=C(O)c1ccc(N2C[C@@H]3C[C@H]2C[C@H]3OCc2c(-c3c(Cl)cccc3Cl)noc2C2(F)CC2)cc1F` [Compound I-122, 4-[(1S,4S,5R)-5-{[3-(2,6-dichlorophenyl)-5-(1-fluorocyclopropyl)-1,2-oxazol-4-yl]methoxy}-2-azabicyclo[2.2.1]heptan-2-yl]-2-fluorobenzoic Acid] came in with a pEC50 of 9.6. The Emax in assay [1] (setting [3]) was determined as 137%. In assay [2], the Emax was 102% and the EC50 was 1.58 nM.

As to `CC(C)c1cc(C(=O)O)cc2sc(N3C[C@@H]4C[C@H]3C[C@H]4OCc3c(-c4c(Cl)cccc4Cl)noc3C3CC3)nc12` [Compound I-247, 2-[(1S,4S,5R)-5-{[5-cyclopropyl-3-(2,6-dichlorophenyl)-1,2-oxazol-4-yl]methoxy}-2-azabicyclo[2.2.1]heptan-2-yl]-4-(propan-2-yl)-1,3-benzothiazole-6-carboxylic Acid], in assay [1], the pEC50 amounted to 8.5. Also, the Emax in assay [1] (setting [3]) is 128%. In assay [2], the Emax turned out to be 114% and the EC50 is 2 nM.

In assay [1], `CCCS(=O)(=O)NC(=O)c1ccc(N2C[C@@H]3C[C@H]2C[C@H]3OCc2c(-c3ccccc3C(F)(F)F)noc2C2CC2)c(F)c1` [Compound I-200, 4-((1S,4S,5R)-5-((5-cyclopropyl-3-(2-(trifluoromethyl)phenyl)isoxazol-4-yl)methoxy)-2-azabicyclo[2.2.1]heptan-2-yl)-3-fluoro-N-(propylsulfonyl)benzamide] yielded a pEC50 of 8.6. Also, the Emax in assay [1] (setting [3]) turned out to be 215%. Besides, in assay [2], the Emax amounted to 110% and the EC50 was 0.251 nM.

In assay [1], `O=c1[nH]c2cc(N3C[C@@H]4C[C@H]3C[C@H]4OCc3c(-c4c(Cl)cccc4Cl)noc3C3CC3)ccc2o1` [Compound I-140, 5-[(1S,4S,5R)-5-{[5-cyclopropyl-3-(2,6-dichlorophenyl)-1,2-oxazol-4-yl]methoxy}-2-azabicyclo[2.2.1]heptan-2-yl]-2,3-dihydro-1,3-benzoxazol-2-one] had a pEC50 of 9.1. The Emax in assay [1] (setting [3]) was found to be 142%. In assay [2], the Emax is 121% and a half-maximal response (EC50) required 20 nM.

The molecule `N#Cc1cc(N2C[C@@H]3C[C@H]2C[C@H]3OCc2c(-c3c(Cl)cccc3Cl)noc2C2(F)CC2)ccc1C(=O)O` [Compound I-123, 2-cyano-4-[(1S,4S,5R)-5-{[3-(2,6-dichlorophenyl)-5-(1-fluorocyclopropyl)-1,2-oxazol-4-yl]methoxy}-2-azabicyclo[2.2.1]heptan-2-yl]benzoic Acid] showed a pEC50 in assay [1] of 8.6. Besides, in assay [1] (setting [3]), the Emax stood at 160%. For the same molecule, in assay [2], the Emax is 99% and the midpoint of the response, the EC50, lay at 0.501 nM.

In turn, `Cc1cccc(Cl)c1-c1noc(C2CC2)c1CO[C@@H]1C[C@@H]2C[C@H]1CN2c1ccc(C(=O)O)cc1F` [Compound I-113, 4-[(1S,4S,5R)-5-[[3-(2-chloro-6-methylphenyl)-5-cyclopropyl-1,2-oxazol-4-yl]methoxy]-2-azabicyclo[2.2.1]heptan-2-yl]-3-fluorobenzoic acid] displayed a pEC50 in assay [1] of 8.8. In addition, the Emax in assay [1] (setting [3]) was 126%; in assay [2], 101%. In assay [2], this molecule gave an EC50 of 0.794 nM.

Take `O=C1NCCc2cc(N3C[C@@H]4C[C@H]3C[C@H]4OCc3c(-c4c(Cl)cccc4Cl)noc3C3CC3)ccc21` [Compound I-136, 6-[(1S,4S,5R)-5-{[5-cyclopropyl-3-(2,6-dichlorophenyl)-1,2-oxazol-4-yl]methoxy}-2-azabicyclo[2.2.1]heptan-2-yl]-1,2,3,4-tetrahydroisoquinolin-1-one]: in assay [1], the pEC50 is listed as 9 and the Emax amounted to 154%. In addition, in assay [2], the Emax amounted to 114% and a half-maximal response (EC50) required 3.98 nM.

Turning to `O=C(NCCS(=O)(=O)O)c1ccc(N2C[C@@H]3C[C@H]2C[C@H]3OCc2c(-c3c(Cl)cccc3Cl)noc2C2CC2)cc1` [Compound I-166, 2-({4-[(1S,4S,5R)-5-{[5-cyclopropyl-3-(2,6-dichlorophenyl)-1,2-oxazol-4-yl]methoxy}-2-azabicyclo[2.2.1]heptan-2-yl]phenyl}formamido)ethane-1-sulfonic Acid], the pEC50 in assay [1] was found to be 8.7. For the same molecule, the Emax in assay [1] (setting [3]) was determined as 154%. In assay [2], the Emax came to 114% and the EC50 was 50.1 nM.
